The nature of data set [1]: Water vapor adsorption/desorption (WVS). The conditions noted are these: for Sorption (5-95-5% RH): adsorption 5 to 95% RH; for Desorption (5-95-5% RH): desorption 95 to 5% RH. Format: physicochemical. As to the method: Water vapor adsorption/desorption (WVS) data were collected on a VTI SGA-100 Vapor Sorption Analyzer. NaCl and PVP were used as calibration standards. Samples were not dried prior to analysis. Adsorption and desorption data were collected over a range from 5 to 95% RH at 10% RH increments under a nitrogen purge. The equilibrium criterion used for analysis was less than 0.0100% weight change in 5 minutes with a maximum equilibration time of 3 hours if the weight criterion was not met. Data were not corrected for the initial moisture content of the samples.

Data set [2] is described as follows: Thermogravimetric (TG) analysis. The class given is physicochemical. The note with it: TGA, up to 150° C., attributed to residual solvent. Here is the method:
In Table 4, for Form I, the 26.4 kJ/mol value for the enthalpy of fusion was calculated from a single 10° C./min pattern whereas the 25.6 kJ/mol value was calculated as an average from three 50° C./min patterns. DSC results for Form III indicated a melt onset at 76° C., while HSM results indicated it was 81° C. Material decomposition was observed upon heating above approximately 170° C. The minor weight loss observed up to 150° C. was attributed to loss of residual solvent. FIG. 1 is a DSC stack plot for Forms I-V of Pterostilbene.
Thermogravimetric (TG) analyses were performed using a TA Instruments Q5000 IR thermogravimetric analyzer. Temperature calibration was performed using nickel and Alumel. Each sample was placed in an aluminum pan. The pan was hermetically sealed with a lid that was opened using a punching mechanism just before being inserted into the TG furnace. The furnace was heated under nitrogen at a rate of 10° C./minute.

Data set [3] in a line: Enthalpy (heat) of fusion from DSC data. The conditions noted are these: for Heat of fusion (ΔH), single analyses / Heat of fusion (ΔH), average: DSC 50° C./min; for Heat of fusion (ΔH), average: average of three. The class given is physicochemical. Here is the method: In Table 4, for Form I, the 26.4 kJ/mol value for the enthalpy of fusion was calculated from a single 10° C./min pattern whereas the 25.6 kJ/mol value was calculated as an average from three 50° C./min patterns. DSC results for Form III indicated a melt onset at 76° C., while HSM results indicated it was 81° C. Material decomposition was observed upon heating above approximately 170° C. The minor weight loss observed up to 150° C. was attributed to loss of residual solvent. FIG. 1 is a DSC stack plot for Forms I-V of Pterostilbene. Differential Scanning Calorimetry (DSC) analyses were performed using a TA Instruments (New Castle, Del.) Q2000 differential scanning calorimeter, equipped with a refrigerated cooling system (RCS). Temperature calibration was performed using NIST traceable indium metal. The sample was placed into an aluminum DSC pan, and the weight was accurately recorded. The pan was covered with a lid perforated with a laser pinhole, and the lid was hermetically sealed. A weighed, crimped aluminum pan was placed on the reference side of the cell. The sample cell was equilibrated at sub-ambient temperature and heated under a nitrogen purge at a rate of 10° C./minute. Higher and lower heating rates were also investigated (from 1 to 300° C./min). Alternatively, data were obtained using a modulation amplitude of +/−0.8° C. and a 60 second period with an underlying heating rate of 2° C./min from −50 to 150° C. The reported glass transition temperatures are obtained from the inflection of the step change in the reversible heat flow versus temperature curve. Thermodynamic stability relationships of various forms of Pterostilbene were studied by calculating the heat of fusion for each form (from DSC data, see table 4) and through slurry interconversion experiments in toluene. Heat of fusion (ΔH) for Form I was determined (from […] DSC data) to be approximately 100 J/g or 25.6 kJ/mol. […] Heat of fusion for Form II was determined (from 10° C./min DSC data) to be approximately 92 J/g or 23.6 kJ/mol. […] Heat of fusion for Form III was estimated (from 50° C./min DSC data) to be approximately 75 J/g or 19.2 kJ/mol.

Data set [4] is described as follows: Slurry interconversion experiments in toluene (XRPD of recovered solids). The class given is physicochemical. The note with it: from enthalpy of fusion, melting point and slurry interconversion in toluene. As to the method: Thermodynamic stability relationships of known forms of Pterostilbene were studied by calculating the enthalpy of fusion for each form (from DSC data, Table 4) and through slurry interconversion experiments in toluene in Table 1.
Saturated solutions of Pterostilbene were prepared at ambient temperature in toluene. The solutions were filtered and seeds of each form were added. The samples were agitated for days and the solids recovered by vacuum filtration. The solids were collected and allowed to dry under ambient conditions.

Data set [5] is described as follows: Intrinsic dissolution rate in water. Format: physicochemical. Here is the method: The polymorphs of Pterostilbene described herein can also be characterized by their respective dissolution rates. […] (open symbols) and 37° C. (filled symbols). […] UV-VIS spectrophotometry: samples were analyzed using a SpectraMax M2 Microplate Reader. Wavelength calibration and photometric accuracy was performed using the SpectraMax […] software as an internal calibration of the instrument. The instrument was blanked with an empty quartz glass plate. Samples were analyzed in the UV range at ambient temperature in the wells of a 96-well quartz plate. The absorbance spectra of water was collected and subtracted from the spectra of the drug solutions to calculate concentrations. Samples were performed in duplicate and absorbance data was averaged. The standard curve was determined based on absorbance at 310 nm.

A short description of data set [6]: Stress conditions, stability of Pterostilbene Form II. Format: physicochemical. From the text: Stress conditions were employed to evaluate the stability of Pterostilbene Form II. […] Ambient and elevated temperature water slurry experiments starting with Form II material were set up in an effort to produce a hydrate of Pterostilbene.
For data set [7] the following is noted: cited from earlier work.
For data set [8] the following is noted: cited from earlier work. This is another data set of the same source.
Data set [9] is described as follows: Physical stability of amorphous Pterostilbene under ambient conditions. The class given is physicochemical. The source says: FIG. 9 is the x-ray diffraction pattern of x-ray amorphous Pterostilbene. By use the term “x-ray amorphous” what is meant is a material whose powder x-ray powder diffraction pattern is consistent with an amorphous “halo” as that term is understood in the art. By inspection, one of ordinary skill in the art would recognize that the pattern in FIG. 9 does represents a material without any significant crystallinity. However, the material may be nanocrystalline or some other disordered solid. The glass transition temperature of amorphous Pterostilbene was experimentally determined (by modulated DSC) to be approximately 4° C.

[10] abbreviates: DSC 50° C./min (average of three for Forms I and II).

The structures appear in SMILES notation. Several values for one entry are separate records, joined by “and”; a condition that tells them apart may be missing. Identical values can stand only once.

For `COc1cc(/C=C/c2ccc(O)cc2)cc(OC)c1` [Form III], the “Sorption (5-95-5% RH)” value in data set [1] amounted to 0.6 weight %. The “Desorption (5-95-5% RH)” value in data set [1] stood at 0.5 weight %. Moreover, in [2], the “% weight loss (at 150° C.)” value worked out at 0.2%. In addition, the “Heat of fusion (ΔH), single analyses” value in data set [3] is “approximately 75 J/g”. The Enthalpy of fusion in data set [3] (setting [10]) was around 4.59 kcal/mol; in data set [3] (DSC 50° C./min (average of three for Forms I and II), listed as III), 4.59 kcal/mol.

For `COc1cc(/C=C/c2ccc(O)cc2)cc(OC)c1` [Form II], the “Sorption (5-95-5% RH)” value in data set [1] was 0.2/0.2 weight %. For the same compound, the “Desorption (5-95-5% RH)” value in [1] is reported as 0.2/0.2 weight %. For the same compound, the “% weight loss (at 150° C.)” value in [2] was 0.2%. In addition, in data set [4], the “Thermodynamic stability relationship of forms” value was “thermodynamically favored compared to Forms III-V”. Further, the values for the Intrinsic dissolution rate in [5] (25° C.) and in data set [5] (37° C.) were 0.90 ± 0.03 μg/cm^−2/min and 2.35 ± 0.08 μg/cm^−2/min, respectively. In addition, the Enthalpy of fusion was around 5.64 kcal/mol in [3] (DSC 10° C./min); 5.64 kcal/mol in data set [3] (DSC 10° C./min, listed as II); 5.78 kcal/mol in data set [3] (setting [10]); 5.78 kcal/mol in data set [3] (DSC 50° C./min (average of three for Forms I and II), listed as II). Moreover, the “Heat of fusion (ΔH)” value in [3] (DSC 10° C./min) is “approximately 92 J/g”. In addition, the “Heat of fusion (ΔH), single analyses” value in data set [3] is 100 J/g and 91 J/g and 92 J/g. For the same compound, the “Heat of fusion (ΔH), average” value in data set [3] is recorded as 94 J/g. In data set [6], the Organic vapor stress entry is reported as “structurally unchanged”. Further, the Heat stress result in data set [6] (80° C. for 3 days) is given as “conversion to Form I”. In addition, the “Chemical stability on ambient exposure” value in data set [6] (ambient (air, but not light) exposure, 34 days) is recorded as “chemically unchanged”. Further, the “Structural stability on ambient exposure” value in data set [6] (ambient (air, but not light) exposure, 70 days) was “structurally unchanged”. In [6] (ambient and elevated temperature water slurry), the “Hydrate formation in water slurry” value is listed as “No hydrate was observed”. Also, in [6] (ambient and elevated temperatures), the Moderate humidity stress result is “did not result in deliquescence”. Moreover, the “Resulting material of water slurry” value is recorded as “Form II” in data set [6] (ambient temperature) and “Form I” in data set [6] (elevated temperature).

As to `COc1cc(/C=C/c2ccc(O)cc2)cc(OC)c1` [Form IV], in data set [1] (listed as IV), the “Sorption (5-95-5% RH)” value is given as 0.5/0.5 weight % and the “Desorption (5-95-5% RH)” value was 0.5/0.5 weight %. The “% weight loss (at 150° C.)” value in data set [2] (listed as IV) amounted to 0.2%.

For `COc1cc(/C=C/c2ccc(O)cc2)cc(OC)c1` [Form I], in data set [1], the “Sorption (5-95-5% RH)” value is listed as 0.2/0.2 weight %. Moreover, the “Desorption (5-95-5% RH)” value in data set [1] is listed as 0.2/0.2 weight %. Besides, in data set [2], the “% weight loss (at 150° C.)” value amounted to 0.5%. Moreover, in data set [4], the “Thermodynamic stability relationship of forms” value was “thermodynamically stable crystal form”. Besides, the results for the Intrinsic dissolution rate in [5] (25° C.) and in [5] (37° C.) were 0.83 ± 0.06 μg/cm^−2/min and 2.05 ± 0.03 μg/cm^−2/min, respectively. For the same compound, the Enthalpy of fusion in data set [3] (DSC 10° C./min) is ~6.12 kcal/mol and 6.31 kcal/mol; in data set [3] (DSC 10° C./min, listed as I), 6.12 kcal/mol; in data set [3] (setting [10]) it was 6.31 kcal/mol and 6.12 kcal/mol; in data set [3] (DSC 50° C./min (average of three for Forms I and II), listed as I) it was 6.31 kcal/mol. Besides, the “Heat of fusion (ΔH)” value in data set [3] (DSC 10° C./min) was “approximately 100 J/g”. The “Heat of fusion (ΔH), single analyses” value in [3] is 106 J/g and 102 J/g and 101 J/g. In [3], the “Heat of fusion (ΔH), average” value came to 103 J/g.

With `COc1cc(/C=C/c2ccc(O)cc2)cc(OC)c1` [Form V], in data set [1] (listed as V), the “Sorption (5-95-5% RH)” value is recorded as 0.8 weight % and the “Desorption (5-95-5% RH)” value was 0.5 weight %. In addition, the “% weight loss (at 150° C.)” value in data set [2] (listed as V) is on record as 0.4%.

Consider `COc1cc(/C=C/c2ccc(O)cc2)cc(OC)c1` [Pterostilbene, trans-3,5-dimethoxy-4′-hydroxystilbene], for which the Solubility in water result in data set [7] is “poor”. For the same compound, the Bioavailability entry in data set [8] is recorded as “poor”.

As for `COc1cc(/C=C/c2ccc(O)cc2)cc(OC)c1` [amorphous Pterostilbene], the “Physical stability of the amorphous form” value in data set [9] is recorded as “rapidly crystallized”.

Values taken from US8524782B2, “Key intermediate for the preparation of Stilbenes, solid forms of Pterostilbene, and methods for making the same” (Laurus Labs Private Limited, priority 2008, dated 2013).
